Test results from paper PMC9312188, “Antioxidant Activity Evaluation and Assessment of the Binding Affinity to HSA of a New Catechol Hydrazinyl-Thiazole Derivative” (Antioxidants, 2022).

Biological target: T1, human serum albumin (HSA) (Homo sapiens, UniProt P02768)
T1 construct: gene ALB; commercial HSA from Sigma-Aldrich, full mature protein, untagged, monomeric
Assay: isothermal titration calorimetry, independent binding model
Settings: read-out: Ka (converted)

T1 sequence (P02768 25-609): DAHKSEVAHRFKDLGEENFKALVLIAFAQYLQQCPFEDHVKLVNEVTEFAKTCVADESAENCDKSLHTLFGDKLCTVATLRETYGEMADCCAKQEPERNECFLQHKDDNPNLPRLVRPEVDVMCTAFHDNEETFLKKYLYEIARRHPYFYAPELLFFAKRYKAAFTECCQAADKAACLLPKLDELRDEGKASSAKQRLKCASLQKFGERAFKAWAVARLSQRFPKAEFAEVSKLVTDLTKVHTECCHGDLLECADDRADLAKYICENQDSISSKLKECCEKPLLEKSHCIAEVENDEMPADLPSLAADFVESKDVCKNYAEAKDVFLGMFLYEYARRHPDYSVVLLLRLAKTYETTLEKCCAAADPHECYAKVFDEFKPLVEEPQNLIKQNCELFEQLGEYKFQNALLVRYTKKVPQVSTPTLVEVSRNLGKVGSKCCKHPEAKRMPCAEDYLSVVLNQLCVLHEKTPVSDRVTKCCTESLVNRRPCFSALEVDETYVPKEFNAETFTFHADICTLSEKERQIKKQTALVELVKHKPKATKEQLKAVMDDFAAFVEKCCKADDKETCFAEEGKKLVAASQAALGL

Kd: 140 µM
SMILES: Cc1csc(N/N=C/c2ccc(O)c(O)c2)n1 [compound 5, (E)-2-(3,4-dihydroxybenzylidene)-1-(4-methylthiazol-2-yl)hydrazin-1-ium chloride]
